“And” between values parts separate entries of the source, which are not always exact repeats. Equal values may be shown once.

For orientation: IC50 means the point on the concentration scale where inhibition reaches its midpoint. A high value points to lower potency. Broadly, the bioavailability is dose-corrected exposure relative to a reference, in per cent. A higher bioavailability goes with much systemic uptake. What is called Cmax is the maximum level reached in the sampled fluid or tissue. The half-life is the time in which the quantity being followed falls by half. A lower half-life goes with rapid decline.

For one data set, the target named is T1, ERK2 (MAPK1) (Homo sapiens, UniProt P28482).
T1 construct: purchased Life technologies
Briefly: ERK2 (MAPK1) enzymatic assay (Z′-Lyte). The data set is classed as biochemical. Here is the method: To assess the capacity of compounds to inhibit ERK2 enzymatic activity, Z′-Lyte biochemical assay from Life technologies was used according to manufacturer's instructions. Briefly, black 384-well plates containing 100 nl of 100× compound solution in 100% DMSO, 2.4 μl kinase buffer, 5 μl 2×MAPK1 (ERK2)/Ser/Thr 03 mixture and 2.5 μl 4×ATP solution were used. Plates were shaken for 30 seconds and incubated for 60 minutes at room temperature. Then, 5 μl of a 1:1024 dilution of Development Reagent A was added. Plates were shaken for 30 seconds and incubated for 60 minutes at room temperature. A plate reader was used to read fluorescence. […] Kinase buffer consisted of 50 mM HEPES pH 7.5, 0.01% BRIJ-35, 10 mM MgCl2, 1 mM EGTA.

Data set [1] has as its system A375 cells (malignant melanoma). Briefly: Cell line proliferation assay (MTT, A375). It counts as cell-based. The following applies: Homo sapiens, A-375, 72 hours. Here is the method: A cell line assay was used to determine the capacity of compounds to inhibit cell proliferation. A375 cells (malignant melanoma) were grown to near 80% confluence and seeded at 3000 cells per 100 μl per well in DMEM with 10% FBS in 96-well flat bottom plates. Cells were incubated for 24 hours at 37° C. under 5% CO2. 100 μl compound solutions were added to cells and incubated for 72 hours at 37° C. Total volume of media was 200 μl per well. Compounds were screened in 0.15% DMSO (final) using 10 titration points in duplicate. Negative control wells consisted of vehicle only (0.15% DMSO in 10% FBS DMEM). After 72 hours of compound treatment, SDS 1% (final) was added to positive control wells for 15 minutes at 37° C. Then, medium was discarded and replaced by 100 μl per well of a MTT solution (3-[4.5-dimethylthiazol-2-yl]-2.5-diphenyltetrazolium bromide) (Sigma, Cat #M5655) at 0.5 mg/ml in 10% FBS DMEM. Cells were incubated for 4 hours at 37° C. MTT reaction was stopped and homogenized by the addition of 100 μl per well of SDS 10% 0.01M HCl. After 16 hours at 37° C., absorbance was measured at 570 nm in a Bio-Tek plate reader (PowerWave HT). […] Analysis was performed using GraphPad Prism software.

Another data set has as its target 58 kinases. Briefly: Kinase panel (Z′-Lyte, Adapta/Lanthascreen), 58 kinases. It counts as biochemical. The following applies: for Kinase panel @500 nM hits > 50%: number of the 58 kinases inhibited more than 50% at 500 nM; for Kinase panel @500 nM hits > 80%: number of the 58 kinases inhibited more than 80% at 500 nM. The procedure: To assess the kinase selectivity of compounds, Z′-Lyte biochemical assay, and Adapta/Lanthascreen binding assays from Life technologies were used according to manufacturer's instructions. Pourcentages of inhibition at 500 nM of test compounds were performed towards 58 kinases: ABL1, ACVR1B (ALK4), AKT2 (PKB beta), AMPK (A1/132/G3), AURKA (Aurora A), AXL, BRAF, BTK, CAMK2B (CaMKII beta), CDK2/cyclin A, CHEK1 (CHK1), CLK1, CSNK1A1 (CK1 alpha 1), CSNK2A1 (CK2 alpha 1), DAPK3 (ZIPK), DYRK1A, EGFR (ErbB1), EPHB3, ERBB2 (HER2), FGFR2, FLT3, FRAP1 (mTOR), GSK3B (GSK3 beta), IGF1R, IKBKB (IKK beta), INSR, IRAK4, JAK2, KDR (VEGFR2), KIT, LCK, MAP2K1 (MEK1), MAPK10 (JNK3), MAPK11 (p38 beta), MAPKAPK2, MARK2, MET (cMet), NEK2, NTRK1 (TRKA), PAK2 (PAK65), PDGFRB (PDGFR beta), PDK1 Direct, PHKG2, PIK3CA/PIK3R1 (p110 alpha/p85 alpha), PIM1, PLK1, PRKACA (PKA), PRKCA (PKC alpha), PTK2 (FAK), RET, ROCK1, RPS6KA1 (RSK1), RPS6KB1 (p70S6K), SRC, STK3 (MST2), SYK, TEK (Tie2), TYRO3 (RSE).

The next data set addresses T2, hERG channel (Homo sapiens, UniProt Q12809).
T2 construct: a Chinese Hamster Ovary cell line stably expressing the full-length ion channel; expressed in transfected cells; host or cells: Chinese Hamster Ovary cell line
Briefly: hERG channel inhibition assay (patch clamp). The data set is classed as cell-based. The following applies: whole-cell patch clamp, CHO cell line expressing hERG.

Another data set addresses T3, CYP 3A4 (Homo sapiens, UniProt P08684).
T3 construct: endogenous in cells; host or cells: cryopreserved human hepatocytes
As to the kind of experiment: CYP 3A4 inhibition assay in human hepatocytes. It counts as in vitro ADME. The following applies: cryopreserved human hepatocytes, midazolam probe substrate, 10 min. Here is the method:
To assess the capacity of compounds to inhibit CYP 3A4 enzymatic activity, the test compounds (0.1 μM-25 μM) were incubated with cryopreserved human hepatocytes for 10 min in the presence of the specific CYP3A4 probe substrate, midazolam. 1-Hydroxymidazolam was monitored by LC-MS/MS and a decrease in the formation of the metabolite compared to the vehicle control was used to calculate an IC50 value.

Another data set can be described thus: PK experiments in mice. The data set is classed as in vivo. The following applies: mouse, plasma, male BalbC mice, @20 mpk PO, @1 mpk IV. The procedure:
For intravenous injection, a single 1 mg/kg dose was injected in tail vein and blood was collected at 0.12, 0.25, 0.5, 1, 2, 4, 8 and 24 h after injection. For oral route, a single 20 mg/kg dose was administered, and blood was collected at 0.25, 0.5, 1, 2, 4, 8, 10 and 24 h after gavage. Plasma separated from blood samples was stored at −20° C. until analysis. Vials containing the study samples were retrieved and thawed to room temperature. A volume of 50 μl of sample was added to 200 μl of acetronitrile containing internal standard (tolbutamide; 25 ng/mL) and vortexed for 5 min and centrifuged at 14000 rpm for 5 min at 4° C. 200 μl of supernatant was separated and transferred to HPLC vial for analysis. For prodrug pharmacokinetics, only parent drug was dosed by HPLC.

The subject of a further data set is Caco 2 cell lines. The following applies: Caco-2, pH 7.4.

T1 sequence (P28482 whole entry): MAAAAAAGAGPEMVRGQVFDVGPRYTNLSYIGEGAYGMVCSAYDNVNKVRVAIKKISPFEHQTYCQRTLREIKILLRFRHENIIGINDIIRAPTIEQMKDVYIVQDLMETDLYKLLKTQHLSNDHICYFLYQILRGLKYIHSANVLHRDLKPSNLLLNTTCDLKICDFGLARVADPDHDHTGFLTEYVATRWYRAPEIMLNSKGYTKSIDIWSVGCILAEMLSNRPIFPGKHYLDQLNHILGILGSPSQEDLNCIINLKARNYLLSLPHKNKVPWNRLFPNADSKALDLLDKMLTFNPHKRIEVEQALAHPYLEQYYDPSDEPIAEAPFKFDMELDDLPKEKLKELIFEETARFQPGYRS
T2 sequence (Q12809 whole entry): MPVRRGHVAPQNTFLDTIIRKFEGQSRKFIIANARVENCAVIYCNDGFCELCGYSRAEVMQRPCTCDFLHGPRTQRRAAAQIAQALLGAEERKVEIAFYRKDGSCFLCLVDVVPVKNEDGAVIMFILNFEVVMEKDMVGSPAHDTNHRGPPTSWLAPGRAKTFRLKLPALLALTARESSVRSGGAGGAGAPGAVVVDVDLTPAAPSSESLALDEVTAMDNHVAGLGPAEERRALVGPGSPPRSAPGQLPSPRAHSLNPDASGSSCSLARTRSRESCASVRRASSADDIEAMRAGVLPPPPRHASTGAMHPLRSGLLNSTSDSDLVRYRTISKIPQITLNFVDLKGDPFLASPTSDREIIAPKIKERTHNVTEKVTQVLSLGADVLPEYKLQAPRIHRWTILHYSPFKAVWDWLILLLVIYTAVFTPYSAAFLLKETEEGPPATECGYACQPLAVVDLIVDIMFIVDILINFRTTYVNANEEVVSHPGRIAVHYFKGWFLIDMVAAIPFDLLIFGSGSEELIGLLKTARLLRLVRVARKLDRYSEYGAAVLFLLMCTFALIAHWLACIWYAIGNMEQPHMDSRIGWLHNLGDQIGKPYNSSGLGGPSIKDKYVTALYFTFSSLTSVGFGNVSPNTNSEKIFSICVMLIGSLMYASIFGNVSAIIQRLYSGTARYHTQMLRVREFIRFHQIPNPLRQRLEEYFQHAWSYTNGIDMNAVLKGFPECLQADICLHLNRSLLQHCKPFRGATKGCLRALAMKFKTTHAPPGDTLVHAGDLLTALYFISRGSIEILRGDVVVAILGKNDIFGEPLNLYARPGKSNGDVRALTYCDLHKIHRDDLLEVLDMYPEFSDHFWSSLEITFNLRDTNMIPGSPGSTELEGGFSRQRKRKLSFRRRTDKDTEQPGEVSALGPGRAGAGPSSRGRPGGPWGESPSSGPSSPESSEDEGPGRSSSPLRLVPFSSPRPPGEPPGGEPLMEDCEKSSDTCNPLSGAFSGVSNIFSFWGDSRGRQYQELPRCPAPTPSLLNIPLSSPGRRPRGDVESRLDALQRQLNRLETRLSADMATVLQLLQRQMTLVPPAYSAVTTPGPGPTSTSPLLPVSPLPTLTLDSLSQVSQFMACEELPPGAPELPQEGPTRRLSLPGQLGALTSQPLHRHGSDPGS
T3 sequence (P08684 whole entry): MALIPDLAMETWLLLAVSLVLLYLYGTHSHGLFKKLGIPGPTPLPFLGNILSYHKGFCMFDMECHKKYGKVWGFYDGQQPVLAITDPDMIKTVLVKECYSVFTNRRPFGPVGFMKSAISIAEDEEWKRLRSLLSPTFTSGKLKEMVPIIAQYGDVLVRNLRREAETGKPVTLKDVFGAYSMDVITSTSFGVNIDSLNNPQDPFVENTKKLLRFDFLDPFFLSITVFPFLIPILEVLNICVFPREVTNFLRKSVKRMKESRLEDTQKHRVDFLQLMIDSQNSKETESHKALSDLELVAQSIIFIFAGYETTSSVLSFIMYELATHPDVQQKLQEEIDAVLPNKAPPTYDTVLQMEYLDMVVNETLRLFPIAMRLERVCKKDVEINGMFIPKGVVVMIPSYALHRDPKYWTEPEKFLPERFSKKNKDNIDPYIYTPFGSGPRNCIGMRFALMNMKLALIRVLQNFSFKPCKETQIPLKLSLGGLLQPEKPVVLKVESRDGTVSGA
Procedure for Caco 2 cell lines: Caco 2 cell lines were used for the in vitro transport studies and were obtained from ATCC. Cells were split every other day at a split ratio of 1:3-1:5 and grown in Dulbecco's Modified Eagle Medium (GlutaMAX I, 4,500 mg/L D-glucose, sodium pyruvate.) supplemented with 10% FBS in the presence of antibiotics. For transport studies, cells were seeded onto polycarbonate Transwell filter membranes (Millipore) at a density of 60,000 cells/well. After 24 h post seeding, changed medium and cultured for another 21 days before transport experiments. For transport studies, donor solutions were prepared by diluting the stock solutions of test compounds in transport medium (HBSS buffer with 10 mM HEPES, pH 7.4). Receiver solutions were the same HBSS buffer with 10 mM HEPES, pH 7.4. The transport of test compounds (5 μM) was measured in duplicate in two directions [apical to basolateral (A→B) and basolateral to apical (B→A)].
The permeability coefficient for membrane transport of test compounds was determined using the following equation: Papp (cm/sec)=(Vr/CO) (1/S) (dC/dt); Papp=apparent permeability, Vr=volume of medium in the receiver chamber, CO=PAR of the test drug in the receiver chamber, S=surface area of monolayer, dC/dt=drug PAR in the receiver chamber with time). Efflux Ratio was defined as: Efflux Ratio=Papp B-A/Papp A-B Bioanalysis was done on LC-MS/MS.
Procedure for hERG channel: Compounds were used as a 10 mM stock in DMSO before dilution in HEPES-buffered saline to 30 μM. 6-point concentration-response curves were generated using 3.16-fold serial dilutions from the top test concentration. Electrophysiological recordings were made from a Chinese Hamster Ovary cell line stably expressing the full-length ion channel. Single cell ionic currents were measured in whole-cell configuration at room temperature (21-23° C.) using a Patchliner (Nanion Technologies). The internal solution for hERG contained (mM): 120 KF, 20 KCl, 10 EGTA, 10 HEPES and was buffered to pH 7.3. The external solution (HEPES-buffered saline, HEPES-buffered saline) contained (mM): 138 NaCl, 4.5 KCl, 1.8 CaCl2), 1.0 MgCl2, 10 HEPES, 10 glucose, buffered to pH 7.4. […] Currents were measured from the step and referenced to the holding current. Compounds were then incubated for 2 minutes to achieve steady state prior to addition of the next concentration.

On to `CN(C)C[C@H](c1cccc(F)c1)n1ccc(-c2c[nH]c3ncc(N4CCOCC4)cc23)cc1=O` [Compound no1 (S), (S)-1-(2-(dimethylamino)-1-(3-fluorophenyl)ethyl)-4-(5-morpholino-1H-pyrrolo[2,3-b]pyridin-3-yl)pyridin-2(1H)-one], for which the results for the IC50 (against ERK2 (MAPK1); in data set [1]) were 0.0012 µM and 0.107 µM, respectively. For the same molecule, the “Kinase panel @500 nM hits > 50%” value at 58 kinases is 2/58. In addition, the “Kinase panel @500 nM hits > 80%” value at 58 kinases is given as 1/58.
For the molecule `CN(C)C[C@H](c1cccc(Cl)c1)n1ccc(-c2c[nH]c3ncc(N4CCOCC4)cc23)cc1=O` [Compound no2 (S), (S)-1-(1-(3-chlorophenyl)-2-(dimethylamino)ethyl)-4-(5-morpholino-1H-pyrrolo[2,3-b]pyridin-3-yl)pyridin-2(1H)-one], on ERK2 (MAPK1), the half-maximal inhibitory concentration (IC50) amounted to 0.0021 µM. In data set [1], this molecule came in with an IC50 of 0.035 µM. On 58 kinases, the “Kinase panel @500 nM hits > 50%” value is 10/58 and the “Kinase panel @500 nM hits > 80%” value is given as 1/58.
On the same counts, the results for `CN(C)C[C@H](c1cc(Cl)cc(Cl)c1)n1ccc(-c2c[nH]c3ncc(N4CCOCC4)cc23)cc1=O` [Compound no3 (S), (S)-1-(1-(3,5-dichlorophenyl)-2-(dimethylamino)ethyl)-4-(5-morpholino-1H-pyrrolo[2,3-b]pyridin-3-yl)pyridin-2(1H)-one] are 0.0032 µM, 0.132 µM, 6/58 and 1/58.
On the same counts, the results for `CN(C)C[C@H](c1ccc(Cl)c(Cl)c1)n1ccc(-c2c[nH]c3ncc(N4CCOCC4)cc23)cc1=O` [Compound no4 (S), (S)-1-(1-(3,4-dichlorophenyl)-2-(dimethylamino)ethyl)-4-(5-morpholino-1H-pyrrolo[2,3-b]pyridin-3-yl)pyridin-2(1H)-one] are 0.0031 µM, 0.072 µM, 5/58 and 1/58.
For `CN(C)C[C@H](c1cccc(Br)c1)n1ccc(-c2c[nH]c3ncc(N4CCOCC4)cc23)cc1=O` [Compound no5 (S), (S)-1-(1-(3-bromophenyl)-2-(dimethylamino)ethyl)-4-(5-morpholino-1H-pyrrolo[2,3-b]pyridin-3-yl)pyridin-2(1H)-one], the half-inhibitory concentration (IC50) against ERK2 (MAPK1) came out at 0.0045 µM; in data set [1], 0.077 µM; on hERG channel, 20.5 µM; against CYP 3A4 it was 9.5 µM. Further, the “Kinase panel @500 nM hits > 50%” value on 58 kinases is listed as 7/58. In addition, at 58 kinases, the “Kinase panel @500 nM hits > 80%” value is recorded as 1/58. In “PK experiments in mice” (20 mg/kg), this molecule yielded a bioavailability of 9.2%. Besides, the Cmax in the data set “PK experiments in mice” was 1730 ng/mL and 3.3 µM. Moreover, the half-life in “PK experiments in mice” is 1.83 h.
`CN(C)C[C@H](c1ccc(F)c(Br)c1)n1ccc(-c2c[nH]c3ncc(N4CCOCC4)cc23)cc1=O` [Compound no7 (S), (S)-1-(1-(3-bromo-4-fluorophenyl)-2-(dimethylamino)ethyl)-4-(5-morpholino-1H-pyrrolo[2,3-b]pyridin-3-yl)pyridin-2(1H)-one]: the midpoint of inhibition against ERK2 (MAPK1), the IC50, lay at 0.0041 µM. This molecule also yielded an IC50 in data set [1] of 0.053 µM. Moreover, at 58 kinases, the “Kinase panel @500 nM hits > 50%” value is 4/58 and the “Kinase panel @500 nM hits > 80%” value is reported as 1/58.
On the same counts, the results for `CN(C)C[C@H](c1ccc(F)c(I)c1)n1ccc(-c2c[nH]c3ncc(N4CCOCC4)cc23)cc1=O` [Compound no8 (S), (S)-1-(2-(dimethylamino)-1-(4-fluoro-3-iodophenyl)ethyl)-4-(5-morpholino-1H-pyrrolo[2,3-b]pyridin-3-yl)pyridin-2(1H)-one] are 0.0022 µM, 0.064 µM, 7/58 and 1/58.
On to `CN(C)C[C@H](c1ccc(F)c(F)c1)n1ccc(-c2c[nH]c3ncc(N4CCOCC4)cc23)cc1=O` [Compound no17 (S), (S)-1-(1-(3,4-difluorophenyl)-2-(dimethylamino)ethyl)-4-(5-morpholino-1H-pyrrolo[2,3-b]pyridin-3-yl)pyridin-2(1H)-one], for which the values for the IC50 (at ERK2 (MAPK1); in data set [1]) were 0.0027 µM and 0.103 µM, respectively.
Taken in the same sequence, the figures for `CN(C)C[C@H](c1cccc(Cl)c1)n1ccc(-c2c[nH]c3ncc(N4CCOCC4)c(F)c23)cc1=O` [Compound no22 (S), (S)-1-(1-(3-chlorophenyl)-2-(dimethylamino)ethyl)-4-(4-fluoro-5-morpholino-1H-pyrrolo[2,3-b]pyridin-3-yl)pyridin-2(1H)-one] were 0.004 µM and 0.077 µM.
Turning to `COCc1cc(Cl)cc([C@@H](CN(C)C)n2ccc(-c3c[nH]c4ncc(N5CCOCC5)cc34)cc2=O)c1` [Compound no23 (S), (S)-1-(1-(3-chloro-5-(methoxymethyl)phenyl)-2-(dimethylamino)ethyl)-4-(5-morpholino-1H-pyrrolo[2,3-b]pyridin-3-yl)pyridin-2(1H)-one], the 50% inhibitory concentration (IC50) against ERK2 (MAPK1) stood at 0.0045 µM; in data set [1], 0.008 µM.
For the molecule “(S)-1-(2-amino-1-(3-chlorophenyl)ethyl)-4-(5-morpholino-1H-pyrrolo[2,3-b]pyridin-3-yl)pyridin-2(1H)-one [Comparative compound A (S), reference compound]”, on 58 kinases, the “Kinase panel @500 nM hits > 50%” value is reported as 26/58 and the “Kinase panel @500 nM hits > 80%” value is listed as 15/58. Further, the “Papp A-B” value in the data set on Caco 2 cell lines is given as < 10 10^−6 cm/s.
